This passage reports EC50 results from patent US11236055B2 (Venenum Biodesign, LLC, priority 2016, dated 2022).

For orientation: EC50 means the midpoint of the concentration-response curve.

One experiment deals with T1, human TGR5 receptor (Homo sapiens, UniProt Q8TDU6).
T1 construct: host or cells: CHO-K1 (hTGR5-CHO cells)
T1 sequence (Q8TDU6 1-330): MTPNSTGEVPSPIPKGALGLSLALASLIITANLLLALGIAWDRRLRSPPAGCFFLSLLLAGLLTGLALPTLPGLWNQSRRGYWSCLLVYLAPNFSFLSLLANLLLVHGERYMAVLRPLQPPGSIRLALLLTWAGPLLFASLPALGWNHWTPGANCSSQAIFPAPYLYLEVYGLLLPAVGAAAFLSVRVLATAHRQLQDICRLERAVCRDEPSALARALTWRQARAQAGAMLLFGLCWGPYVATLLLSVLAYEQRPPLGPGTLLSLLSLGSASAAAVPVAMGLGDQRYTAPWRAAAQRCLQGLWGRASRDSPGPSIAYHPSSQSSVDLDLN
Kind of experiment: Human TGR5 cAMP production assay. The format is cell-based. As to conditions: human TGR5, luminescent cAMP assay; coded A-D; read-out: Human TGR5 Lum. cAMP Activity (EC50). The method, boiled down:
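Intracellular cAMP read by luminescent enzyme-complementation (XS+) after overnight development, following 1 h room-temperature compound treatment of hTGR5-CHO-K1 cells in IBMX plus anti-cAMP antibody. Compounds tested as half-log dilution series; EC50 derived.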
A general note: cAMP levels reflect the balance of adenylyl cyclase and phosphodiesterase activity.

A further experiment concerns the target T2, mouse TGR5 receptor (Mus musculus, UniProt Q80SS6).
T2 construct: expressed in transfected cells; host or cells: HEK293-EBNA (293 c18, ATCC CRL10852), Hygromycin B selection
T2 sequence (Q80SS6 1-329): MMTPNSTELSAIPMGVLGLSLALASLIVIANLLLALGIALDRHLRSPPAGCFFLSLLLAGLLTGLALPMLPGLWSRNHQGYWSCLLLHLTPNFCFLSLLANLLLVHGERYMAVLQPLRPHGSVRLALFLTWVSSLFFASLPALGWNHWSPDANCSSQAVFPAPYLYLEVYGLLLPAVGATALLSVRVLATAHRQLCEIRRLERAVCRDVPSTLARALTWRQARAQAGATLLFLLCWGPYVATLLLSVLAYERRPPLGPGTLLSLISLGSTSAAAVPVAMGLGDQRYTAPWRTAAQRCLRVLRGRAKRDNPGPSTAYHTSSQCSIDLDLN
Kind of experiment: Mouse TGR5 cAMP production assay (HTRF, Cisbio cAMP HiRange). Format: cell-based. As to conditions: HEK293-EBNA cells overexpressing mouse TGR5, HTRF cAMP HiRange; coded A-D. The method, boiled down: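 cAMP read by HTRF competition after 1 h room-temperature compound exposure of mouse TGR5-overexpressing HEK293-EBNA cells. Cells were suspended in serum-free DMEM containing 500 μM IBMX; compounds ran as 12-point half-log dilutions in duplicate; EC50 derived.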

Bounds are passed on as bounds.

As for `Cc1cnccc1-c1cccc([C@H](C)N(CCCC(=O)NC[C@@H](O)[C@H](O)[C@@H](O)[C@@H](O)CO)S(=O)(=O)c2cccc(Cl)c2C)c1` [Compound 20AK, 4-(3-chloro-2-methyl-N-((S)-1-(3-(3-methylpyridin-4-yl)phenyl)ethyl)phenylsulfonamido)-N-((2R,3S,4S,5S)-2,3,4,5,6-pentahydroxyhexyl)butanamide], the results for the EC50 on human TGR5 receptor and at mouse TGR5 receptor were below 0.1 µM and 0.1 to 0.999 µM, respectively.

With `Cc1cnccc1-c1cccc([C@H](C)N(CCCC(=O)NCCCS(=O)(=O)O)S(=O)(=O)c2cccc(Cl)c2C)c1` [Compound 20AL, (S)-3-(4-(3-chloro-2-methyl-N-(1-(3-(3-methylpyridin-4-yl)phenyl)ethyl)phenylsulfonamido)butanamido)propane-1-sulfonic acid], the EC50 at human TGR5 receptor and on mouse TGR5 receptor was below 0.1 µM each time.

On to `Cc1c(Cl)cccc1S(=O)(=O)N(CCCC(=O)NCCS(=O)(=O)O)C(C)(C)c1cccc(-c2ccncc2CO)c1` [Compound 20AO, 2-(4-(3-chloro-N-(2-(3-(3-(hydroxymethyl)pyridin-4-yl)phenyl)propan-2-yl)-2-methylphenylsulfonamido)butanamido)ethanesulfonic acid], for which the results for the EC50 at human TGR5 receptor and on mouse TGR5 receptor were below 0.1 µM and 0.1 to 0.999 µM, respectively.

Take `Cc1c(Cl)cccc1S(=O)(=O)N(CCCC(=O)NCCS(=O)(=O)O)[C@@H](C)c1cccc(-c2ccncc2CO)c1` [Compound 20AP, (S)-2-(4-(3-chloro-N-(1-(3-(3-(hydroxymethyl)pyridin-4-yl)phenyl)ethyl)-2-methylphenylsulfonamido)butanamido)ethanesulfonic acid]: the EC50 on human TGR5 receptor and on mouse TGR5 receptor was 0.1 to 0.999 µM throughout.

Take `Cc1cnccc1-c1cccc([C@H](C)N(CCCC(=O)NCCS(=O)(=O)O)S(=O)(=O)c2ccccc2C)c1` [Compound 20AQ, (S)-2-(4-(2-methyl-N-(1-(3-(3-methylpyridin-4-yl)phenyl)ethyl)phenylsulfonamido)butanamido)ethanesulfonic acid]: the concentration for a half-maximal effect (EC50) is below 0.1 µM at human TGR5 receptor and 0.1 to 0.999 µM on mouse TGR5 receptor.

Consider `Cc1cnccc1-c1cccc([C@H](C)N(CCCCC(=O)NCCOCCN)S(=O)(=O)c2cccc(Cl)c2C)c1` [Compound 20AT, (S)-N-(2-(2-aminoethoxy)ethyl)-5-(3-chloro-2-methyl-N-(1-(3-(3-methylpyridin-4-yl)phenyl)ethyl)phenylsulfonamido)pentanamide], for which the EC50 at human TGR5 receptor is below 0.1 µM; at mouse TGR5 receptor it was 0.1 to 0.999 µM.

For `Cc1cnccc1-c1cccc([C@H](C)N(CCCC(=O)NCCOCCOCCOCCC(=O)O)S(=O)(=O)c2cccc(Cl)c2C)c1` [Compound 20AU, (S)-3-((3-chloro-2-methylphenyl)sulfonyl)-2-(3-(3-methylpyridin-4-yl)phenyl)-7-oxo-11,14,17-trioxa-3,8-diazaicosan-20-oic acid], the EC50 is below 0.1 µM on human TGR5 receptor and 0.1 to 0.999 µM on mouse TGR5 receptor.

Regarding `Cc1cnccc1-c1cccc(C(C)(C)N(CCCC(=O)NCCNC(=O)OC(C)(C)C)S(=O)(=O)c2cccc(Cl)c2C)c1` [Compound 20AV, tert-butyl (2-(4-(3-chloro-2-methyl-N-(2-(3-(3-methylpyridin-4-yl)phenyl)propan-2-yl)phenylsulfonamido)butanamido)ethyl)carbamate], the EC50 on human TGR5 receptor was below 0.1 µM; on mouse TGR5 receptor, 0.1 to 0.999 µM.

As to `Cc1cnccc1-c1cccc([C@H](C)N(CCCC(=O)NCCS(=O)(=O)NCC(=O)O)S(=O)(=O)c2ccccc2C)c1` [Compound 20AX, (S)-2-(4-(2-methyl-N-(1-(3-(3-methylpyridin-4-yl)phenyl)ethyl)phenylsulfonamido)butanamidoethylsulfonamido)acetate], the results for the EC50 on human TGR5 receptor and on mouse TGR5 receptor were below 0.1 µM and 0.1 to 0.999 µM, respectively.

In the case of `Cc1cnccc1-c1cccc([C@H](C)N(CCCC(N)=O)S(=O)(=O)c2cccc(Cl)c2C)c1` [Compound 20AY, (S)-4-(3-Chloro-2-methyl-N-(1-(3-(3-methylpyridin-4-yl)phenyl)ethyl)phenylsulfonamido)butanamide], the EC50 on human TGR5 receptor is below 0.1 µM; at mouse TGR5 receptor it was 0.1 to 0.999 µM.

With `Cc1cnccc1-c1cccc(C(C)N(CCCC(=O)NCCSO)S(=O)(=O)c2ccccc2C(F)(F)F)c1` (centres unmarked) [Compound 20BC, N-(2-(hydroxythio)ethyl)-4-(N-(1-(3-(3-methylpyridin-4-yl)phenyl)ethyl)-2-(trifluoromethyl)phenylsulfonamido)butanamide], the EC50 is below 0.1 µM at human TGR5 receptor and 0.1 to 0.999 µM at mouse TGR5 receptor.

As to `Cc1cnccc1-c1cccc(C(C)N(CCCC(=O)NCCSO)S(=O)(=O)c2cccc(C(F)(F)F)c2)c1` (centres unmarked) [Compound 20BD, N-(2-(hydroxythio)ethyl)-4-(N-(1-(3-(3-methylpyridin-4-yl)phenyl)ethyl)-3-(trifluoromethyl)phenylsulfonamido)butanamide], the EC50 at human TGR5 receptor and on mouse TGR5 receptor was 0.1 to 0.999 µM each time.

For the compound `CCc1cnccc1-c1cccc([C@H](C)N(CCCC(=O)NCS(=O)(=O)O)S(=O)(=O)c2ccccc2C(F)(F)F)c1` [Compound 20BE, (S)-(4-(N-(1-(3-(3-ethylpyridin-4-yl)phenyl)ethyl)-2-(trifluoromethyl)phenylsulfonamido)butanamido)methanesulfonic acid], the EC50 on human TGR5 receptor and on mouse TGR5 receptor was below 0.1 µM throughout.

As to `Cc1cnccc1-c1cccc([C@H](C)N(CCCC(=O)NCCS(=O)(=O)NCCC(=O)O)S(=O)(=O)c2ccccc2C(F)(F)F)c1` [Compound 20BI], the EC50 on human TGR5 receptor and at mouse TGR5 receptor was below 0.1 µM throughout.

Regarding `Cc1cnccc1-c1cccc([C@H](C)N(CCCC(=O)NCCS(=O)(=O)NCC(=O)O)S(=O)(=O)c2ccccc2C(F)(F)F)c1` [Compound 20BJ], the EC50 at human TGR5 receptor and on mouse TGR5 receptor was below 0.1 µM throughout.

On to `Cc1c(Cl)cccc1S(=O)(=O)N(CCCC(=O)NCCS(=O)(=O)O)[C@@H](C)c1cccc(-c2ccnnc2)c1` [Compound 20BO, (S)-2-(4-(3-chloro-2-methyl-N-(1-(3-(pyridazin-4-yl)phenyl)ethyl)phenylsulfonamido)butanamido)ethanesulfonic acid], for which the values for the 50% effective concentration (EC50) at human TGR5 receptor and at mouse TGR5 receptor were 0.1 to 0.999 µM and above 30 µM, respectively.

On to `Cc1cnsc1-c1cccc([C@H](C)N(CCCC(=O)NCCS(=O)(=O)O)S(=O)(=O)c2cccc(Cl)c2C)c1` [Compound 20BP, (S)-2-(4-(3-chloro-2-methyl-N-(1-(3-(4-methylisothiazol-5-yl)phenyl)ethyl)phenylsulfonamido)butanamido)ethanesulfonic acid], for which the EC50 on human TGR5 receptor was 0.1 to 0.999 µM; at mouse TGR5 receptor, 1 to 30 µM.

As for `Cc1cnccc1-c1cccc([C@H](CCCC(=O)NCS(=O)(=O)O)NS(=O)(=O)c2ccccc2C(F)(F)F)c1` [Compound 20BR, (S)-(5-(3-(3-methylpyridin-4-yl)phenyl)-5-(2-(trifluoromethyl)phenylsulfonamido)pentanamido)methanesulfonic acid], the 50% effective concentration (EC50) on human TGR5 receptor and at mouse TGR5 receptor was 0.1 to 0.999 µM each time.

Take `Cc1c(Cl)cccc1S(=O)(=O)N(CCCC(=O)NCCS(=O)(=O)NCC(=O)O)[C@@H](C)c1cccc(-c2ccncc2CO)c1` [Compound 20BS, (S)-2-(4-(3-chloro-N-(1-(3-(3-(hydroxymethyl)pyridin-4-yl)phenyl)ethyl)-2-methylphenylsulfonamido)butanamido)ethanesulfonamido acetic acid]: the results for the EC50 on human TGR5 receptor and on mouse TGR5 receptor were 0.1 to 0.999 µM and below 0.1 µM, respectively.

Consider `Cc1cnccc1-c1cccc(CCN(CCCC(=O)NCCS(=O)(=O)O)S(=O)(=O)c2cccc(Cl)c2C)c1` [Compound 20BT, 2-(4-(3-chloro-2-methyl-N-(3-(3-methylpyridin-4-yl)phenethyl)phenylsulfonamido)butanamido)ethanesulfonic acid], for which the results for the EC50 on human TGR5 receptor and at mouse TGR5 receptor were 0.1 to 0.999 µM and 1 to 30 µM, respectively.

Turning to `Cc1cnccc1-c1cccc([C@H](C)N(CCC(=O)NCCS(=O)(=O)O)S(=O)(=O)c2cccc(Cl)c2C)c1` [Compound 20BV, (S)-2-(3-(3-chloro-2-methyl-N-(1-(3-(3-methylpyridin-4-yl)phenyl)ethyl)phenylsulfonamido)propanamido)ethanesulfonic acid], the concentration giving a half-maximal response (EC50) is 0.1 to 0.999 µM on human TGR5 receptor and below 0.1 µM on mouse TGR5 receptor.

Turning to `Cc1cnccc1-c1cccc([C@H](C)N(CCCC(=O)NS(=O)(=O)CCC(=O)O)S(=O)(=O)c2cccc(Cl)c2C)c1` [Compound 20BW, (S)-3-(N-(4-(3-chloro-2-methyl-N-(1-(3-(3-methylpyridin-4-yl)phenyl)ethyl)phenylsulfonamido)butanoyl)sulfamoyl)propanoic acid], the EC50 on human TGR5 receptor is 0.1 to 0.999 µM; on mouse TGR5 receptor it was below 0.1 µM.
